Measurements published in patent publication US9290474B2, “Methods for making and using novel semi-synthetic small molecules for the treatment parasitic disease” (The Regents of the University of California, priority 2011, dated 2016).

System: T. brucei brucei
Assay: Screening against T. brucei (antiparasitic activity)
Type: cell-based, Trypanosoma brucei
Conditions: initial screening

CC1(C)C=CC(=O)[C@@]2(C)OOC3C[C@]12CCC3(O)CO (stereo partly shown) [Merulin C, merulin C]
activity against T. brucei brucei: 0.8 µM
